Test results reported in patent publication US20240139190A1, “NOVEL ANTIPARASITIC COMPOUNDS AND METHODS” (The Board of Regents of The University of Texas System, priority 2019, published 2024).

Key:
[1] = test system: cellular tubulin of L. amazonensis; experiment: Polymerized vs. unpolymerized tubulin in parasites (differential centrifugation, western blot); format: cell-based, Leishmania amazonensis; conditions: 24 h at EC50^72 h, densitometry
Description: (§1) One reason why MMV676477 might affect parasite cell division is that, like paclitaxel, it might affect microtubule polymerization, either directly or indirectly. The degree to which MMV676477 affected microtubules polymerization in cells was examined. […] Centrifugation of these extracts allowed separation of insoluble polymeric (pellet) and soluble dimeric (supernatant) tubulin. […] The intensity of α-tubulin staining was examined by normalizing it to the intensity of a membrane protein (gp46 for promastigotes in FIG. 4D; p8 for amastigotes in FIG. 4E).

purified porcine tubulin [2] = target: T1, purified porcine tubulin (Sus scrofa, UniProt P02550+P02554); experiment: Fluorescent microtubule assembly assay; format: biochemical; conditions: mammalian tubulin, fluorescence micrographs
T1 construct: purchased Cytoskeleton, Inc. T240
Procedure: (§2) To determine the selectivity of MMV676477, purified porcine tubulin was exposed to a serial dilution of the drug (0 to 25 μM) and absorbance was measured at 340 nm over time. […] To ensure that the absorbance seen at 340 nm reflected microtubule formation and not precipitation, a fluorescent microtubule assembly assay was employed.

[3] = test system: L. amazonensis promastigotes and amastigotes; experiment: Tubulin intensity by confocal immunofluorescence microscopy; format: cell-based, Leishmania amazonensis; conditions: 24 h at EC50^72 h
Procedure: Promastigotes or amastigotes were treated with the indicated compound concentrations and allowed to adhere to poly-L-lysine coated plates. All cells were fixed with 4% paraformaldehyde and permeabilized/blocked with 0.01% Triton X-100 and 2% BSA in PBS. Promastigotes and amastigotes were incubated with mouse anti-gp46 or anti-p8, respectively at 1:50 or 1:1000 and rat anti-alpha-tubulin antibody at 1:1000. Samples were then probed with A568 anti-mouse and […] secondary antibodies (Molecular Probes). DNA was labeled with Hoescht. Samples were visualized on a Zeiss LSM 880 Inverted confocal Airyscan microscope at 63×; full Z-thicknesses through parasites were obtained. […] For microscopic analysis of mitotic arrest, at least 200 parasites were analyzed per condition per experiment after 48 hrs incubation at compounds' EC50, and the average plus standard error for three experiments was calculated. Representative images were selected from the maximal intensity projections and linearly processed in Adobe Photoshop CS6.
as §1

[4] = test system: L. amazonensis axenic amastigotes; experiment: alamarBlue viability / concentration-response assay, axenic amastigotes; format: cell-based, Leishmania amazonensis; conditions: Leishmania amazonensis, 72 h, L. amazonensis, stage not stated; read-out: EC50^72 h for La
Procedure: Leishmania amazonensis axenic amastigotes (100 μL, 2×10^6 cells/mL) were added to 96-multiwell plates containing 100 μL of amastigote culture medium with an appropriate compound dilution series. 0.1% DMSO (no drug) served as a positive control (100%), and 5 μM amphotericin B served as a negative growth control (0%). Only internal wells were used to minimize edge effects from evaporation. Axenic amastigotes were incubated at 32° C. with a compound/drug for 72 h prior to measurement. Similarly, the cytotoxicity of each compound was determined against RAW 264.7 cells and HepG2 cell lines, following 72 h incubation at 37° C. (promastigotes at 26° C.).
10% alamarBlue® (Thermo Fisher Scientific) was used to measure the growth of both parasite and mammalian cells. Conversion from a blue oxidized state to a pink reduced state was assessed visually at 6 hr. The fluorescence signal was measured with a BioTek Synergy H1 plate reader (530 nm excitation, 570 nm emission). For bioluminescence assays using L. amazonensisluc, relative luminescence units (RLU) were measured using Britelite Plus (PerkinElmer, USA). Luminescence produced by this luciferase reaction is proportional to the amount of luciferase-expressing, viable L. amazonensisluc. Following five-minute incubation at room temperature, the luminescence was measured with a BioTek Synergy H1 plate reader.
All experiments were conducted as three technical triplicates on the same plate, with at least three independent biological repeats of each plate performed. For all assays, percent growth was expressed as a proportion of the untreated (positive) control (i.e. 100%) and plotted against drug/compound concentration. The concentration was then log10 transformed and EC50 values were determined using nonlinear regression (sigmoidal dose-response/variable slope equation) in GraphPad Prism v5.0 (GraphPad Software, Inc., San Diego, CA).
To identify antileishmanial compounds, a microplate-based alamarBlue® assay was used to quickly triage the 400 drug-like compounds available in the MMV Pathogen Box collection. […] A three-step process was used to screen the Pathogen Box: 1) identify hits against axenic amastigotes, 2) confirm the inhibitory concentrations of these hits against axenic amastigotes, 3) evaluate hits for potency against intracellular parasites using fluorescence and bioluminescence-based intracellular assays. The MMV Pathogen Box resource was tested at two concentrations (5 μM and 1 μM, 72 h endpoint) on axenic amastigotes.
Hits were defined as compounds that, at a concentration of 1 μM, decreased the relative fluorescence intensity signal to ≤70% of that produced by parasites incubated in vehicle (0.06% DMSO) only (FIG. 9).

purified porcine tubulin [5] = target: T1, purified porcine tubulin; experiment: Tubulin polymerization turbidity assay, mammalian tubulin; format: biochemical
Procedure: Tubulin polymerization assays were performed in 96-well half-area microplates (Costar) in a final volume of 100 μL. Briefly, Leishmanial or porcine tubulin (>99% pure, Cat. #T240, Cytoskeleton, Inc.) in 50 μL volume was pre-treated with drugs on ice for 5 minutes before adding 50 μL ice cold buffer, to provide a final concentration of 3 mg/ml tubulin in 80 mM PIPES pH 6.9, 2 mM MgCl2, 0.5 mM EGTA, 1 mM GTP, and 1% DMSO unless specified otherwise. The absorbance at 340 nm was recorded in a Synergy H1 microplate reader (BioTek) for up to 45 min at 37° C. (porcine tubulin) or 30° C. (L. tarentolae tubulin).
as §2

[6] = target: purified L. tarentolae tubulin (Leishmania tarentolae, UniProt A0A640KCM0+A0A640KQN0); experiment: Tubulin polymerization turbidity assay, Leishmania tubulin; format: biochemical
Procedure: L. tarentolae (Parrot strain from ATCC) tubulin was purified. Briefly, promastigotes of L. tarentolae were grown to a high density (˜1×10^8 cells/mL), harvested, and resuspended in PME+P buffer containing 100 mM piperazine N, N′-bis (2-ethanesulfonic acid) (PIPES) buffer (pH 6.9), 1 mM glycol ether diamine tetraacetic acid (EGTA), 1 mM MgCl2, 1 mM benzamidine, 0.5 mM phenylmethylsulfonyl fluoride, 25 μg/ml leupeptin. The resulting suspension was extensively sonicated on ice with a probe sonicator (Misonix), cooled on ice for 30 minutes and centrifuged at 40,000×g for 1 hour at 4° C. using an ultracentrifuge (Beckman, Fullerton, CA). The resulting supernatant was filtered through a glass wool or 0.45-micron filter before loading into an equilibrated DEAE-Sepharose Fast Flow matrix (Amersham Biosciences). The column was washed with two column volumes of PME+P and subsequently four column volumes PME+P containing 0.1 M KCl and 0.25 M glutamate (pH 6.9). Tubulin was eluted with two column volumes PME+P containing 0.3 M KCl and 0.75 M glutamate (pH 6.9), and tubulin-rich fractions were confirmed by tubulin polymerization assays. The assembly-competent tubulin was pooled together and diluted into 1×PME buffer, 2 mM GTP, 10 mM MgCl2 and 8% DMSO (v/v). Tubulin was incubated in this buffer for 45 minutes at 30° C. to promote assembly, centrifuged at 50,000×g at 30° C. for 30 min, and re-suspended in 1 mL of ice-cold PME. […] Purity was assessed by SDS-PAGE and Coomassie Blue.
Tubulin polymerization assays were performed in 96-well half-area microplates (Costar) in a final volume of 100 μL. […] The absorbance at 340 nm was recorded in a Synergy H1 microplate reader (BioTek) for up to 45 min at 37° C. […]
To determine whether MMV676477 directly regulates microtubule assembly, assembly-competent tubulin from Leishmania tarentolae was purified and analyzed (FIG. 5A). […] 3 mg/mL purified L. tarentolae tubulin (3 mg/mL) was treated with serial dilutions of MMV676477 while the absorbance was measured at 340 nm over time.

**Q.** How did the “proportion of cellular polymeric tubulin” value [1] turn out when `CC(=O)O[C@H]1C(=O)[C@@]2(C)[C@H]([C@H](OC(=O)c3ccccc3)[C@]3(O)C[C@H](OC(=O)[C@H](O)[C@@H](NC(=O)c4ccccc4)c4ccccc4)C(C)=C1C3(C)C)[C@]1(OC(C)=O)CO[C@@H]1C[C@@H]2O` [paclitaxel] was run?
**A.** significantly increased the proportion of cellular polymeric tubulin

**Q.** What about the “microtubules formed vs control” value (purified porcine tubulin [2]) of the same compound?
**A.** many more microtubules were formed

**Q.** And the “tubulin intensity over control (DMSO-treated)” value [3]?
**A.** significant two-fold increase in tubulin intensity

**Q.** What about the EC50 [4] of the same compound?
**A.** 0.76 µM

**Q.** What about the EC50 (purified porcine tubulin [5]; 3 mg/ml tubulin, 1% DMSO, A340) of the same compound?
**A.** 1.5 ± 0.2 µM

**Q.** What about the “Maximum absorbance (A340, 10% DMSO)” value (purified porcine tubulin [5]; mammalian tubulin) of the same compound?
**A.** 0.36

**Q.** And the EC50 [6]?
**A.** 1.3 µM
